The values below come from patent US9636427B2, “Process for preparing a pharmaceutical formulation of contrast agents” (GUERBET, priority 2008, dated 2017).

Bounds are passed on as bounds.

Experiment in the first data set: not given
As to conditions: values from table 1 of U.S. Pat. No. 7,385,041; cited from earlier work.
On to `O=C([O-])CN1CCNCCN(CC(=O)[O-])CCN(CC(=O)[O-])CC1.O=C([O-])CN1CCNCCN(CC(=O)[O-])CCN(CC(=O)[O-])CC1.[Ca+2].[Ca+2].[Ca+2]` [Ca[Ca-DO3A]2.], for which the “Letal dose (LD 50)” value is 1.6 mmol/kg.
Regarding `CC(O)CN1CCN(CC(=O)[O-])CCN(CC(=O)[O-])CCN(CC(=O)[O-])CC1.CC(O)CN1CCN(CC(=O)[O-])CCN(CC(=O)[O-])CCN(CC(=O)[O-])CC1.[Ca+2].[Ca+2].[Ca+2]` (stereo not drawn) [Ca[Ca-HPDO3A]2], the “Letal dose (LD 50)” value was 1.3 mmol/kg.
Take `O=C(O)CN1CCNCCN(CC(=O)O)CCN(CC(=O)O)CC1` [DO3A]: the “Letal dose (LD 50)” value was 0.12 mmol/kg.
As for `O=C(O)CN1CCN(CC(=O)O)CCN(CC(=O)O)CCN(CC(=O)O)CC1` [DOTA, 1,4,7,10-Tetraazacyclododecane-N,N′,N″,N″′-tetraacetic acid], the “Letal dose (LD 50)” value was 0.18 mmol/kg.
On to `O=C([O-])CN1CCN(CC(=O)[O-])CCN(CC(=O)O)CCN(CC(=O)[O-])CC1.[Gd+3]` [DOTA-Gd], for which the “Letal dose (LD 50)” value was 14 mmol/kg.
For `CC(O)CN1CCN(CC(=O)[O-])CCN(CC(=O)[O-])CCN(CC(=O)[O-])CC1.[Gd+3]` (stereo not drawn) [HP-DO3A-Gd], the “Letal dose (LD 50)” value was 12 mmol/kg.
Turning to `CC(O)CN1CCN(CC(=O)O)CCN(CC(=O)O)CCN(CC(=O)O)CC1` (stereo not drawn) [HP-DO3A], the “Letal dose (LD 50)” value was 0.11 mmol/kg.
Take `O=C([O-])CN1CCN(CC(=O)[O-])CCN(CC(=O)[O-])CCN(CC(=O)[O-])CC1.[Ca+2].[Na+].[Na+]` [Na2 [Ca-DOTA]]: the “Letal dose (LD 50)” value is >7 mmol/kg.

A further data set in a line: Lethal dose (LD50) of free macrocyclic chelates, excipients X[X',L] and Gd chelates, table 1 of U.S. Pat. No. 7,385,041. As to conditions: times better LD50 than free DOTA.
Regarding `O=C([O-])CN1CCN(CC(=O)[O-])CCN(CC(=O)[O-])CCN(CC(=O)[O-])CC1.[Ca+2].[Na+].[Na+]` [Na2 [Ca-DOTA]], the “LD50 of Na2[Ca-DOTA] relative to free DOTA” value is “at least 40 times”.
